Laboratory results as given in PMC6277767, “Broad and Region-Specific Impacts of the Synthetic Cannabinoid CP 55,940 in Adolescent and Adult Female Mouse Brains” (Frontiers in Molecular Neuroscience, 2018).

Tested on: CD1 female mouse brain lipidome
Assay: Brain-region lipid levels (HPLC/MS/MS lipidomics) 2 h after single i.p. 3 mg/kg CP 55,940 vs vehicle
Type: in vivo
Parameters: N-arachidonoyl phenylalanine level, Mean / N-stearoyl tryptophan level, Mean / N-stearoyl proline level, Mean / N-stearoyl leucine level, Mean / N-stearoyl phenylalanine level, Mean / N-stearoyl serine level, Mean / N-stearoyl methionine level, Mean: unit: moles per gram
Procedure: The Bloomington Institutional Animal Care and Use Committee of Indiana University reviewed and approved the animal procedures. Female mice from the CD1 strain were utilized to match our study examining THC’s effects on the brain lipidome ([Leishman et al., 2018]). Mice were given a single i.p. injection of either 3 mg/kg CP or 1:1:18 cremophor:ethanol:saline vehicle (please refer to the section “3 mg/kg CP Is Relevant for Synthetic Cannabinoid Abuse and Has Stronger Effects on the Female Mouse Brain Lipidome During Adolescence” for a justification of dose and use of female mice). Three different age groups were given injections: PND 35 and PND 50 adolescents, and adult mice (PND 113). At least eight mice in each age group received CP and at least eight received vehicle. Matching the THC study time course ([Leishman et al., 2018]), mice were sacrificed via rapid decapitation 2 h after injection. Brains were immediately removed and flash-frozen in liquid nitrogen, and then stored at -80°C until dissections were performed. Brains were dissected on an ice-cold dissection plate into the following regions: STR, HIPP, CER, THAL, CTX, HYP, MID, and STEM. These abbreviations for these brain areas will be used exclusively when discussing the results generated by these specific dissections. Each dissected area was immediately placed in liquid nitrogen and then stored at -80°C until used for lipid extraction.
Tissue extracts were performed as previously described ([Bradshaw et al., 2006]; [Stuart et al., 2013]; [Raboune et al., 2014]; [Leishman et al., 2016a],[b], [2017], [2018]). First, samples were shock frozen in liquid nitrogen, weighed, and transferred to a centrifuge tube. The mass of the largest sample was multiplied by 50 to determine how many milliliters of HPLC-grade methanol (Fisher, Fair Lawn, NJ, United States) to add. Then, samples were spiked with 500 pmol deuterium-labeled NAGly (d8NAGly; Cayman Chemical, Ann Arbor, MI, United States). Samples were placed on ice in darkness for 2 h then individually homogenized and centrifuged at 19,000 × g for 20 min at 20°C. Supernatants were diluted with HPLC water (purified in house) to make a solution of 75% water, 25% supernatant. Lipids were partially purified on C18 solid phase extraction columns (Agilent, Palo Alto, CA, United States). A series of four elutions with 1.5 mL of 60%, 75%, 85%, and 100% methanol were collected ([Stuart et al., 2013]; [Leishman et al., 2016a],[b], [2018]).
As previously described ([Bradshaw et al., 2006]; [Tan et al., 2006]; [Smoum et al., 2010]; [Stuart et al., 2013]; [Tortoriello et al., 2013]; [Raboune et al., 2014]; [Leishman et al., 2016a],[b], [2017], [2018]), samples were analyzed using an Applied Biosystems API 3000 triple quadrupole mass spectrometer with electrospray ionization (Foster City, CA, United States). Using an Agilent XDB-C18 reversed phase analytical column and optimized mobile phase gradients, 20 μL from each elution were chromatographed. Two Shimadzu 10ADvp pumps (Columbia, MD, United States) provided the pressure for gradient elution. Mobile phase A: 20% methanol, 80% water (v/v) and 1 mM ammonium acetate (Sigma, St. Louis, MO, United States). Mobile phase B: 100% methanol, 1 mM ammonium acetate. Every method run began with 0% mobile phase B, reached 100% mobile phase B flowing at 0.2 mL/min, and gradually returned to 0% mobile phase B.
This screening library will be referred to as the lipidome when discussing data from this study. HPLC/MS/MS data were analyzed using Analyst software (Applied Biosystems) ([Bradshaw et al., 2006]; [Tan et al., 2006]; [Stuart et al., 2013]; [Tortoriello et al., 2013]; [Raboune et al., 2014]; [Leishman et al., 2016a],[b], [2017], [2018]). Chromatograms (Supplementary Figure 3) were generated by determining the retention time of analytes from the analytical column with a [M-1] or [M+1] parent peak and a fragmentation peak corresponding to the programmed values. […]

[1] = cortex, PND 35, 3 mg/kg CP 55,940
[2] = cortex, PND 35 adolescent female mice, 3 mg/kg CP 55,940
[3] = hippocampus, PND 50, 3 mg/kg CP 55,940 vs Veh

What does the source list for `CCCCCCC(C)(C)c1ccc([C@@H]2C[C@H](O)CC[C@H]2CCCO)c(O)c1` [CP 55,940]?
N-oleoyl valine Magnitude (x Veh level) [1]: 1.33 x Veh level; N-palmitoyl leucine Direction (rel to Veh) [1]: ↑; N-palmitoyl leucine, Magnitude (x Veh level) [1]: 1.52 x Veh level; N-palmitoyl serine Direction (rel to Veh) [1]: ↓; N-palmitoyl serine, Magnitude (x Veh level) [1]: 0.77 x Veh level; N-palmitoyl tyrosine Direction (rel to Veh) [1]: ↑; N-palmitoyl tyrosine Magnitude (x Veh level) [1]: 1.25 x Veh level; N-palmitoyl valine Direction (rel to Veh) [1]: ↑; N-palmitoyl valine Magnitude (x Veh level) [1]: 1.57 x Veh level; N-stearoyl serine Direction (rel to Veh) [1]: ↓; N-stearoyl serine Magnitude (x Veh level) [1]: 0.84 x Veh level; N-stearoyl tyrosine Direction (rel to Veh) [1]: ↑; N-stearoyl tyrosine Magnitude (x Veh level) [1]: 1.46 x Veh level; N-stearoyl valine Direction (rel to Veh) [1]: ↑; N-stearoyl valine Magnitude (x Veh level) [1]: 1.32 x Veh level; PGF2α Direction (rel to Veh) [1]: ↑; PGF2α Magnitude (x Veh level) [1]: 1.19 x Veh level; phosphoLEA Direction (rel to Veh) [1]: ↑; phosphoLEA Magnitude (x Veh level) [1]: 1.51 x Veh level; 2-arachidonoyl glycerol level, Mean [2]: 1.2E-09; 2-linoleoyl glycerol level, Mean [2]: 1.12E-10; 2-oleoyl glycerol level, Mean [2]: 5.02E-09; 2-palmitoyl glycerol level, Mean [2]: 5.49E-09; 6-ketoPGF1α level, Mean [2]: 5.64E-12; Arachidonic acid level, Mean [2]: 1.78E-09; Linoleic acid level, Mean [2]: 6.06E-10; N- stearoyl valine level, Mean [2]: 1.46E-12; N-arachidonoyl GABA level, Mean [2]: 2.26E-11; N-arachidonoyl alanine level, Mean [2]: 2.81E-12; N-arachidonoyl dopamine level, Mean [2]: BDL; N-arachidonoyl ethanolamine level, Mean [2]: 1.13E-10; N-arachidonoyl glycine level, Mean [2]: 1.35E-11; N-arachidonoyl methionine level, Mean [2]: 2.69E-13; N-arachidonoyl phenylalanine level, Mean [2]: 7.25E-13; N-arachidonoyl proline level, Mean [2]: BDL; N-arachidonoyl serine level, Mean [2]: 2.41E-12; N-arachidonoyl taurine level, Mean [2]: 1.3E-10; N-arachidonoyl tryptophan level, Mean [2]: BDL; N-arachidonoyl tyrosine level, Mean [2]: 8.47E-13; N-docosahexaenoyl GABA level, Mean [2]: 4.81E-12; N-docosahexaenoyl alanine level, Mean [2]: 7.37E-13; N-docosahexaenoyl ethanolamine level, Mean [2]: 1.21E-10; N-docosahexaenoyl glycine level, Mean [2]: 1.18E-12; N-docosahexaenoyl leucine level, Mean [2]: 1.02E-12; N-docosahexaenoyl phenylalanine level, Mean [2]: 5.48E-13; N-docosahexaenoyl proline level, Mean [2]: BDL; N-docosahexaenoyl serine level, Mean [2]: 5.64E-12; N-docosahexaenoyl tryptophan level, Mean [2]: BDL; N-docosahexaenoyl tyrosine level, Mean [2]: 5.7E-13; N-docosahexaenoyl valine level, Mean [2]: 2.57E-13; N-linoleoyl GABA level, Mean [2]: 3.78E-12; N-linoleoyl alanine level, Mean [2]: 6.3E-13; N-linoleoyl ethanolamine level, Mean [2]: 2.31E-10; N-linoleoyl glycine level, Mean [2]: 3.61E-13; N-linoleoyl leucine level, Mean [2]: 1.58E-13; N-linoleoyl phenylalanine level, Mean [2]: 1.48E-13; N-linoleoyl proline level, Mean [2]: BDL; N-linoleoyl serine level, Mean [2]: 1.38E-11; N-linoleoyl tryptophan level, Mean [2]: BDL; N-nervonoyl valine level, Mean [2]: BDL; N-oleoyl GABA level, Mean [2]: 9.1E-12; N-oleoyl alanine level, Mean [2]: 2.8E-12; N-oleoyl dopamine level, Mean [2]: BDL; N-oleoyl ethanolamine level, Mean [2]: 4.68E-10; N-oleoyl glycine level, Mean [2]: 5.53E-12; N-oleoyl leucine level, Mean [2]: 4.34E-13; N-oleoyl methionine level, Mean [2]: 4.2E-13; N-oleoyl phenylalanine level, Mean [2]: 2.01E-12; N-oleoyl serine level, Mean [2]: 5.9E-11; N-oleoyl tyrosine level, Mean [2]: 6.76E-13; N-oleoyl valine level, Mean [2]: 4.65E-13; N-palmitoyl GABA level, Mean [2]: 1.28E-11; N-palmitoyl alanine level, Mean [2]: 4.96E-12; N-palmitoyl ethanolamine level, Mean [2]: 1.43E-10; N-palmitoyl glycine level, Mean [2]: 1.28E-11; N-palmitoyl leucine level, Mean [2]: 1.76E-12; N-palmitoyl methionine level, Mean [2]: 1.41E-12; N-palmitoyl phenylalanine level, Mean [2]: 3.73E-12; N-palmitoyl proline level, Mean [2]: 7.7E-14; N-palmitoyl serine level, Mean [2]: 1.08E-11; N-palmitoyl tryptophan level, Mean [2]: 9.75E-13; N-palmitoyl tyrosine level, Mean [2]: 1.99E-12; N-palmitoyl valine level, Mean [2]: 1.52E-12; N-stearoyl GABA level, Mean [2]: 1.48E-11; N-stearoyl alanine level, Mean [2]: 1.04E-11; N-stearoyl ethanolamine level, Mean [2]: 5.63E-11; N-stearoyl glycine level, Mean [2]: 7.24E-12; N-stearoyl leucine level, Mean [2]: 1.55E-12; N-stearoyl methionine level, Mean [2]: 1.68E-12; N-stearoyl phenylalanine level, Mean [2]: 3.37E-12; N-stearoyl proline level, Mean [2]: 3.31E-14; N-stearoyl serine level, Mean [2]: 1.35E-11; N-stearoyl tryptophan level, Mean [2]: 3.26E-12; N-stearoyl tyrosine level, Mean [2]: 3.04E-13; Oleic acid level, Mean [2]: 6.83E-09; PGE2 level, Mean [2]: 4.31E-10; PhosphoLEA level, Mean [2]: 8.98E-12; 2-linoleoyl glycerol Direction (relative to Veh) [3]: ↓; 2-linoleoyl glycerol Magnitude (x Veh level) [3]: 0.73 x Veh level; 6-ketoPGF1α Direction (relative to Veh) [3]: ↑; 6-ketoPGF1α Magnitude (x Veh level) [3]: 1.46 x Veh level; Linoleic acid, Direction (relative to Veh) [3]: ↓
